Several values for one entry are separate records, joined by “and”; a condition that tells them apart may be missing. Equal entries are not always repeated. Where two headings read alike, the source gives them in different places.
Test system: α7 integrin promoter
Test: muscle cell-based assay: α7βgal+/− myoblasts/myotubes, LacZ reporter, β-galactosidase cleavage of FDG
Parameters: species or system mouse
Details: for AC50: read-out: Fit Log AC50 (converted); for Emax: read-out: Max Response [%]; for Fit HillSlope: curve fit; for Fit Zero Activity [%]: fitted activity at zero concentration; for Fit Curve Class: key not given; for Score: Table 12 Compound data, concentration-response curve fit
Experimental: An α7 integrin null mouse was produced in which exon 1 of the gene encoding the α7 integrin was replaced by the LacZ reporter. In these mice, all the transcriptional regulatory elements of the α7 integrin promoter were retained, allowing β-galactosidase to report expression of 7 integrin. A primary myoblast cell line (designated α7βgal^+/−) isolated from 10 day old α7^+/− pups were analyzed for the ability of β-galactosidase to report α7 integrin expression. α7βgal^+/− myoblasts were differentiated and subjected to X-gal staining and western analysis (FIGS. 1A and 1B).
The activity of the α7 integrin promoter was measured by β-galactosidase cleavage of the non-fluorescent compound fluorescein di-β-D-galactopyranoside (FDG) to fluorescein. This assay was used to screen compound libraries to identify molecules that up-regulate α7 integrin expression in muscle.
Also evaluated was the effect of various isoforms of laminin and the ligand for α7β1 integrin on integrin expression. Positive hits were subjected to dose-response analysis, western analysis and a myostatin counterscreen (a negative regulator of muscle growth).

[1] = Mus musculus, Table 12, log of AC50, given with negative sign, unit of AC50 not given

Structure (SMILES) | AC50 [1] | Emax (Mus musculus) | Fit HillSlope (Table 12) | Fit Zero Activity [%] (Table 12) | Fit Curve Class (Table 12) | Score | also measured
O=C(COc1ccc(Cl)cc1)N1CCN(C2CCCC2)CC1.O=C(O)C(=O)O | – | – | – | – | – | – | Results in a α7+/− β-galactosidase assay, Myotubes, 0.5 uM: 0.1096; Results in a α7+/− β-galactosidase assay, Myotubes, 1 uM: 0.06035; Results in a α7+/− β-galactosidase assay, Myotubes, 5 uM: −0.07324; Results in a α7+/− β-galactosidase assay, Myotubes, 10 uM: −0.04013; Results in a α7+/− β-galactosidase assay, Myotubes, 20 uM: −0.1813; Results in a α7+/− β-galactosidase assay, Myotubes, 40 uM: −0.2711
O=C(Nc1ccccc1Cl)C1CCCN1C(=O)OCc1ccccc1 (stereo not shown) | – | – | – | – | – | – | Results in a α7+/− β-galactosidase assay, Myotubes, 0.5 uM: −0.04746; Results in a α7+/− β-galactosidase assay, Myotubes, 1 uM: −0.07012; Results in a α7+/− β-galactosidase assay, Myotubes, 5 uM: −0.00214; Results in a α7+/− β-galactosidase assay, Myotubes, 10 uM: −0.05774; Results in a α7+/− β-galactosidase assay, Myotubes, 20 uM: −0.1932; Results in a α7+/− β-galactosidase assay, Myotubes, 40 uM: −0.2694
C#CC1(O)CCC2C3CCC4=C/C(=N/OCC(=O)NCC(=O)NC(C(=O)O)C(C)C)CC[C@]4(C)C3CC[C@@]21C (stereo partly shown) | – | – | – | – | – | – | Results in a α7+/− β-galactosidase assay, Myotubes, 0.5 uM: 0.1086; Results in a α7+/− β-galactosidase assay, Myotubes, 1 uM: 0.2546; Results in a α7+/− β-galactosidase assay, Myotubes, 5 uM: 0.3822; Results in a α7+/− β-galactosidase assay, Myotubes, 10 uM: 0.2484; Results in a α7+/− β-galactosidase assay, Myotubes, 20 uM: 0.1342; Results in a α7+/− β-galactosidase assay, Myotubes, 40 uM: 0.073
O=C1Nc2ccccc2/C1=C/c1c[nH]cn1 | – | – | – | – | – | – | Results in a α7+/− β-galactosidase assay, Myotubes, 0.5 uM: −0.09659; Results in a α7+/− β-galactosidase assay, Myotubes, 1 uM: 0.04801; Results in a α7+/− β-galactosidase assay, Myotubes, 5 uM: 0.2975; Results in a α7+/− β-galactosidase assay, Myotubes, 10 uM: 0.1108; Results in a α7+/− β-galactosidase assay, Myotubes, 20 uM: 0.1916; Results in a α7+/− β-galactosidase assay, Myotubes, 40 uM: 0.1189
Cc1ccc(NS(=O)(=O)c2cccc(C(=O)O)c2)cc1S(=O)(=O)N1CCOCC1 | – | – | – | – | – | – | Results in a α7+/− β-galactosidase assay, Myotubes, 5 uM (Myotubes, compound at 5 uM): 0.6308 and 0.5052
COc1cc([N+](=O)[O-])cc(/C=N/NC(=O)C(O)(c2ccccc2)c2ccccc2)c1O | – | – | – | – | – | – | Results in a α7+/− β-galactosidase assay, Myotubes, 0.5 uM: 0.1119; Results in a α7+/− β-galactosidase assay, Myotubes, 1 uM: −0.01127; Results in a α7+/− β-galactosidase assay, Myotubes, 5 uM: −0.4224; Results in a α7+/− β-galactosidase assay, Myotubes, 10 uM: −0.4434; Results in a α7+/− β-galactosidase assay, Myotubes, 20 uM: −0.2622; Results in a α7+/− β-galactosidase assay, Myotubes, 40 uM: −0.3132
Cc1cc(C2CCCCC2)n(O)c(=O)c1 [Ciclopirox ethanolamine, ciclopirox ethanolamine, reference compound] | – | – | – | – | – | – | EC50 (Mus musculus, enhancement of α7 integrin expression in muscle cells, read-out: EC50): 0.6 µg/mL; Optimal Concentration (enhancement of α7 integrin expression in muscle cells): 4 µg/mL
CC(OC(=O)c1cc(-c2cccnc2)nc2ccccc12)C(=O)Nc1ccc2ccccc2c1 (stereo not shown) [Compound 1] | 1.12 µM | 191% | 3.132 | −2.9752% | 1.1 | 94 | Activity at 0.307 μM [%] **: 0%
Cc1cccc(OCc2nc(C#N)c(N3CCCC3)o2)c1 [Compound 2] | 3.55 µM | 223% | 1.4163 | 3.1995% | 1.1 | 91 | Activity at 7.660 μM [%] **: 175.022%
COc1ccccc1-c1coc2c3c(ccc2c1=O)OC1CCCCN1C3 (stereo not shown) [Compound 3] | 2.24 µM | 159% | 3.0654 | −35.3084% | 1.1 | 89 | –
Cc1ccccc1C(=O)Nc1scc(-c2ccc(Br)cc2)c1C(=O)O [Compound 4] | 2.82 µM | 137% | 1.8617 | 7.6069% | 1.1 | 87 | –
COc1cc2c(cc1NC(=O)Cc1ccc(C)cc1)oc1ccccc12 [Compound 5] | 1.12 µM | 87.1% | 2.5334 | −5.0637% | 1.1 | 86 | Activity at 38.30 μM [%] **: 87.1241%
COCc1c(C(=O)OCc2nc(=O)c3sccc3[nH]2)oc2ccccc12 [Compound 6] | 1.12 µM | 68.1% | 1.3437 | −58.5311% | 1.1 | 85 | –
O=C(NC1CCCC1)c1ccc(CS(=O)(=O)Cc2ccccc2F)o1 [Compound 7] | 4.47 µM | 105% | 1.6924 | 12.5% | 1.1 | 85 | –
CN(C)S(=O)(=O)c1cccc(C(=O)Nc2ccc3c(c2)CCC3)c1 [Compound 8] | 2.82 µM | 94.3% | 4.9549 | −15.6523% | 1.1 | 85 | –
Cc1c(C(=O)O)cccc1-n1c(C)cc(/C=N/Nc2ccc([N+](=O)[O-])cn2)c1C [Compound 9] | – | – | 1.3723 | −30.5005% | 1.1 | 85 | Max Response [%]: 88.6572%; Activity at 0.307 μM [%] **: −24.4743%; Activity at 1.530 μM [%] ** (1.530 μM): 6.2893%; Activity at 7.660 μM [%] **: 68.0567%; Activity at 38.30 μM [%] **: 88.6572%; Fit Infinite Activity [%] (Table 12, fitted activity at infinite concentration): 92.2022%; Fit Log AC50 (Table 12, log of AC50, given with negative sign, unit of AC50 not given): −5.55
Cc1ccc(NP(=O)(Nc2ccc(C)cc2)Nc2ccc(C)cc2)cc1 [Compound 10] | 3.16 µM | 102% | 2.8473 | 0% | 1.1 | 85 | Activity at 0.307 μM [%] **: 0%
Cc1cc(OCC(=O)NC(C)C)ccc1Cl [Compound 11] | 3.98 µM | 102% | 2.5334 | −0.509% | 1.1 | 85 | Activity at 0.307 μM [%] **: 0%
COC(=O)C1=C(C)N=C(C)/C(=C(/O)OC)C1c1ccccc1OCc1c(C)no[n+]1[O-] (stereo not shown) [Compound 12] | 2.82 µM | 100% | 1.4781 | 9.3996% | 1.1 | 85 | –
